Results taken from patent US8461165B2, “2-Substituted phenyl-5,7-dihydrocarbyl-3,7-dihydropyrrolo[2,3-d] pyrimidin-4-one derivatives, the preparation and the pharmaceutical use thereof” (Yangtze River Pharmaceutical (Group) Co., Ltd, priority 2003, dated 2013).
Counter-ions that a name gives are not always drawn.

Key:
[1] = system: male rats; experiment: effect of single administration on the coitus function of male rats; format: in vivo, rat; settings: 24 mg/kg oral; for the latent period of straddle / the latent period of the coitus / times of straddle / times of the coitus: single administration, 20 min observation, average ± standard deviation
Experimental: After purchasing, the male rat and the estrogenized female rat were kept in the same cage for 2 days, and the male rat would acquire the sexual experiences. Then, the female rat was taken out of the cage, and the experiments began after the male rat stayed alone in a cage for 5 days. Each tested compound was orally administered in a dosage of 24 mg/kg, the positive group was administered with Sildenafil citrate (Viagra) in a dosage of 24 mg/kg, and the control group was administered with saline at the equal volume (0.1 ml/10 g). Fifty minutes after administration, the tested male rats were placed within a observation container (both the diameter and the height of the container were 24 cm), and the male rats adapted the new environment for 5 minutes. After that, two estrogenized female rats were placed into the container. The sexual behavior of the male rats in 20 minutes was observed under the non-interfering condition using Panasonic WVCP410/G monitor, the latent period of straddle, times of straddle, as well as the latent period of the coitus and times of the coitus. All the experiments were carried out at 21-24° C., and completed before 11:00 AM. The comparative results among the compounds of the invention, the blank and the positive control drug Sildenafil citrate were listed in Table 2.

[2] = target: phosphodiesterase 5 (PDE5) (Homo sapiens, UniProt O76074); experiment: inhibition of phosphodiesterase 5 (SPA technique); format: biochemical
Experimental: The bioactivity inhibiting phosphodiesterase 5 (PDE5) of compounds of formula I was measured cross the reference of methods (Hidaka H, et al Biochim. Biochim. Biophys. Acta, 1976, 429, 485; Kim D-K, et al., Bioorg. Med. Chem. 2001, 9, 3013). The inhibiting activity of PDE5 was determined using SPA technique and the method of chemical fluorescence. The method was as follows: firstly, the reaction time curve and the enzyme concentration curve of PDE5 reaction system were determined by Microplate Scintillation & Luminescence Counter (TopCount Counter), by which the optimal reaction condition was determined. Under the optimized conditions, the inhibition experiments on PDE5 were carried out.

[3] = system: man; settings: cited from earlier work
[4] = system: male rabbit; experiment: penis erection experiment in conscious male rabbits; format: in vivo; settings: for Length of rabbit penis: conscious rabbits, average of 3 rabbits
Experimental: (Bischoff E.; Schneider K, International Journal of Impotence Research, 2001, 13, 230 235)
The hydrochloride of 3,7-dihydropyrrolo[2,3-d]pyrimidin-4-one derivatives was dissolved into water, and injected to conscious-rabbits intravenously (i.v.) (0.1 mg-3 mg/kg). Erection was accessed by comparing the length of penis before and at 0, 30, 60, 90 and 120 minutes after intravenous administration of the above-mentioned agents.

[5] = system: mice; experiment: acute toxicity in mice; format: in vivo; settings: single dose
Experimental: Furthermore, none of any obvious sign of adverse acute toxicity is shown for the compounds of this invention tested in rat and dog, both intravenously (i.v.) and orally (p.o.) at up to 3 mg/Kg, has shown. For the situation of mice, no deaths occurred after doses of up to 100 mg/Kg i.v. The LD50 for a single dose of compound I-HCl in mice is 2000 mg/kg.

[6] = 0 min after i.v. administration (0.1 mg-3 mg/kg)
[7] = 30 min after i.v. administration (0.1 mg-3 mg/kg)
[8] = 60 min after i.v. administration (0.1 mg-3 mg/kg)
[9] = 90 min after i.v. administration (0.1 mg-3 mg/kg)
[10] = 120 min after i.v. administration (0.1 mg-3 mg/kg)

| SMILES | the latent period of straddle [1] [min] | the latent period of the coitus [1] [min] | times of straddle [1] | times of the coitus [1] | Length of rabbit penis [4, 6] [mm] | Length of rabbit penis [4, 7] [mm] | Length of rabbit penis [4, 8] [mm] | Length of rabbit penis [4, 9] [mm] | Length of rabbit penis [4, 10] [mm] | other results |
| --- | --- | --- | --- | --- | --- | --- | --- | --- | --- | --- |
| CCCn1cc(C)c2c(=O)[nH]c(-c3cc(S(=O)(=O)N4CCN(C)CC4)ccc3OCC)nc21.Cl [Compound 6-HCl, 2-[2-ethoxyl-5-(4-methylpiperazinyl-1-sulfonyl)phenyl]-5-methyl-7-n-propyl-3,7-dihydropyrrolo[2,3-d]pyrimidin-4-one] | 6.4 ± 3.07 | 8.8 ± 5.85 | 8.0 ± 3.93 | 9.0 ± 8.50 | – | – | – | – | – | latent period of coitus compared with positive control group ([1]; versus Sildenafil citrate): remarkably shorter than that of the positive control group; indexes of sexual function of the rats (in words) ([1]; versus saline): obviously enhanced |
| CCCc1nn(C)c2c(=O)[nH]c(-c3cc(S(=O)(=O)N4CCN(C)CC4)ccc3OCC)nc12 [sildenafil, reference compound] | – | – | – | – | – | – | – | – | – | inhibition at 0.01 µM ([2]; read-out: inhibiting rate on PDE5): 31.7%; effective rates in treating male sexual organs erectile dysfunction [3]: 80% |
| CCCn1cc(C)c2c(=O)[nH]c(-c3cc(S(=O)(=O)N4CCN(CC)CC4)ccc3OCC)nc21.Cl.Cl [Compound 1-2HCl, 2-[2-ethoxyl-5-(4-ethylpiperazinyl-1-sulfonyl)phenyl]-5-methyl-7-n-propyl-3,7-dihydropyrrolo[2,3-d]pyrimidin-4-one dihydrochloride] | – | – | – | – | 1.3 | 3.0 | 2.0 | 1.0 | 1.0 | – |
| CCCn1cc(C)c2c(=O)[nH]c(-c3cc(S(=O)(=O)N4CCN(C)CC4)ccc3OCC)nc21.Cl [Compound 6-2HCl, 2-[2-ethoxyl-5-(4-methylpiperazinyl-1-sulfonyl)phenyl]-5-methyl-7-n-propyl-3,7-dihydropyrrolo[2,3-d]pyrimidin-4-one] | – | – | – | – | 0.0 | 5.3 | 2.7 | 1.7 | 0.0 | – |
| CCCn1cc(C)c2c(=O)[nH]c(-c3cc(S(=O)(=O)N4CCN(C(=O)OCC)CC4)ccc3OCC)nc21.Cl.Cl [Compound 8-2HCl, 2-[2-ethoxyl-5-(4-ethoxylcarbonylpiperazinyl-1-sulfonyl)phenyl]-5-methyl-7-n-propyl-3,7-dihydropyrrolo[2,3-d]pyrimidin-4-one] | – | – | – | – | 2.7 | 1.7 | 1.3 | 0.7 | 0.0 | – |
| CCCn1cc(C)c2c(=O)[nH]c(-c3cc(S(=O)(=O)N4CCN(Cc5ccccc5)CC4)ccc3OCC)nc21.Cl.Cl [Compound 19-2HCl, 2-[2-ethoxyl-5-(4-benzylpiperazinyl-1-sulfonyl)phenyl]-5-methyl-7-n-propyl-3,7-dihydropyrrolo[2,3-d]pyrimidin-4-one] | – | – | – | – | 1.7 | 4.0 | 4.3 | 4.0 | 0.0 | – |
| CCCc1nn(C)c2c(=O)[nH]c(-c3cc(S(=O)(=O)N4CCN(C)CC4)ccc3OCC)nc12 [Sildenafil citrate, reference compound] | 5.0 ± 4.74 | 8.2 ± 4.02 | 12.7 ± 7.18 | 8.2 ± 5.25 | – | – | – | – | – | – |
| CCCn1cc(C)c2c(=O)[nH]c(-c3cc(S(=O)(=O)N4CCN(CC)CC4)ccc3OCC)nc21.Cl [Compound 1-HCl, 2-[2-ethoxyl-5-(4-ethylpiperazinyl-1-sulfonyl)phenyl]-5-methyl-7-n-propyl-3,7-dihydropyrrolo[2,3-d]pyrimidin-4-one monohydrochloride] | 2.6 ± 1.13 | 7.1 ± 5.62 | 7.6 ± 2.70 | 13.1 ± 8.77 | 8.3 | 5.7 | 5.3 | 2.0 | 1.3 | potential in treatment of functional erectile dysfunction (in words) ([4]; rabbit penis erection, i.v.): quick onset and prolonged effectiveness; inhibiting rate on PDE5 ([2]; concentration 10^−8 mol/L): 65.62%; LD50 [5]: 2000 mg/kg; effect on sexual function compared with Sildenafil citrate ([1]; both groups): stronger than that of the Sildenafil citrate group; times of the coitus compared with positive control group ([1]; versus Sildenafil citrate, p<0.05): much more than that of the positive control group; indexes of sexual function of the rats (in words) ([1]; versus saline): obviously enhanced; latent period of coitus (in words) ([1]; versus saline): remarkably shortened; latent period of straddle (in words) ([1]; versus saline): remarkably shortened; times of the coitus (in words) ([1]; versus saline): obviously increased |
